From paper PMC10714399, “Open Source Antibiotics: Simple Diarylimidazoles Are Potent against Methicillin-Resistant Staphylococcus aureus” (ACS Infectious Diseases, 2023)
In brackets after ≈: the same amount, converted by molar mass. Read-outs that look alike come from different tables or passages of the source.

Experiments:
[1] = test system: Staphylococcus aureus NCTC 13373 (mecA-positive; methicillin-resistant); assay: In vitro antibacterial activity, MIC (UCL School of Pharmacy assay), MRSA; type: cell-based; conditions: Staphylococcus aureus
Outline: (§1)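 MIC determined over 32–0.03 μg/mL in 2-fold steps, with at most 2% DMSO, in isosensitest broth. Organisms were suspended in PBS to A600 0.1 (about 1 × 10^8 CFU/mL), diluted 1:100 and inoculated; vancomycin served as QC compound.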

[2] = test system: Enterococcus faecalis ATCC 51299 (vanA-positive; vancomycin-resistant); assay: In vitro antibacterial activity, MIC (UCL), VRE; type: cell-based
Outline: as §1

Aqueous solubility = type: physicochemical; conditions: for solubility: thermodynamic from solid
Source text: (§2) To guide our initial SAR exploration work, we obtained liver microsomal intrinsic clearance data for 5 of the 18 compounds assayed by CO-ADD (Supporting Information - CDCO Report and Supporting Information - Biology). We then acquired intrinsic clearance (CLint), plasma protein binding (PPB), and solubility data on further compounds throughout the SAR campaign (Supporting Information - Biology, Tables S3 and S4). […] The more polar compounds (lower LogD) had reduced PPB and were more metabolically stable.
(§3) Table S4. ADME and Pharmacokinetics: compounds only appearing in the Supplementary […]
(§4) MRSA Aqueous HLM CLint Rat Hep CLint
(§5) Cmpd MIC Solubility Human PPB (%) (µL/min/mg (µL/min/10x6 LogD7.4
(§6) (µg/mL) (µM) protein) cells)
(§7) ADME and toxicity for compounds were measured according to procedures outlined in the manuscript submitted in parallel to this one;2 other procedures were used for those compounds analysed by Monash University (in vitro ADME) or UCL (toxicity), both described in the main

LogD7.4 (Chrom Log D) = type: physicochemical
Source text: as §2, §3, §4, §5, §6, §7

[3] = Human plasma protein binding (PPB); type: in vitro ADME; conditions: human, plasma
Source text: (§8) To guide our initial SAR exploration work, we obtained liver microsomal intrinsic clearance data for 5 of the 18 compounds assayed by CO-ADD (Supporting Information - CDCO Report and Supporting Information - Biology). We then acquired intrinsic clearance (CLint), plasma protein binding (PPB), and solubility data on further compounds throughout the SAR campaign (Supporting Information - Biology, Tables S3 and S4).
as §3, §4, §5, §6, §7

[4] = Human liver microsome intrinsic clearance; type: in vitro ADME
Source text: as §8, §3, §4, §5, §6, §7

[5] = Rat hepatocyte intrinsic clearance; type: in vitro ADME
Source text: as §8, §3, §4, §5, §6, §7

[6] = test system: MRC-5SV2 (human lung fibroblast cell line); assay: Toxicity against MRC-5SV2; type: cell-based; conditions: MRC5 cells
Method: as §7

[7] = test system: PMM (primary mouse macrophages); assay: Toxicity against PMM; type: cell-based; conditions: PMM
Method: as §7

[8] = test system: S. aureus ATCC 25923 (methicillin-susceptible); assay: In vitro antibacterial activity, MIC (UCL), MSSA; type: cell-based, Staphylococcus aureus; conditions: Staphylococcus aureus
Outline: as §1

VSE = assay: In vitro antibacterial activity, MIC, VSE; type: cell-based; conditions: read-out: VSE MIC (UCL)
[9] = chromatographic system (Chrom Log D), pH 7.4, NEU, read-out: LogD 7.4 (NEU)
[10] = human plasma, NEU, read-out: Human PPB (NEU) (converted)
[11] = NEU, read-out: Aqueous Solubility (NEU)
[12] = human liver microsomes, NEU, read-out: HLM CLint (NEU)
[13] = read-out: Human PPB (converted)
[14] = human, liver microsomes, read-out: HLM CLint
[15] = rat, hepatocytes, Figure 4, read-out: Rat Hep CLint
[16] = rat hepatocytes, NEU, read-out: Rat Hep CLint (NEU)
[17] = UCL assay, read-out: MRSA MIC (ug/mL) (UCL)
[18] = UCL assay, read-out: MSSA MIC (ug/mL) (UCL)
[19] = NEU, read-out: Aqueous Solubility (uM) (NEU)
[20] = human plasma, NEU, read-out: Human PPB (%) (NEU) (converted)
[21] = rat hepatocytes, NEU, read-out: Rat Hep CLint (uL/min/10x6 cells) (NEU)
[22] = human liver microsomes, NEU, read-out: HLM CLint (uL/min/mg protein) (NEU)

For `Cc1ccc(-c2c(-c3ccccn3)nc3cc(Cl)ccn23)cc1` [OSA_000978], the MIC ([1]; UCL, read-out: MRSA MIC (UCL)) was 4 µg/mL (≈ 12.5 µM), the MIC ([2]; read-out: VRE MIC (UCL)) was 8 µg/mL (≈ 25 µM) and the “Aqueous Solubility (NEU)” value (Aqueous solubility; NEU) was 5 µM. The chromatographic logD (LogD7.4 (Chrom Log D); [9]) was 3.1, the fraction unbound [3, 10] was 0.0055 and the “HLM CLint (NEU)” value ([4]; human liver microsomes, NEU) was 65.6 uL/min/mg protein. The “Rat Hep CLint (NEU)” value ([5]; rat hepatocytes, NEU) was 104 uL/min/10x6 cells.
In the case of `COc1ccn2cc(-c3ccccn3)nc2c1` [OSA_000856], the MIC ([1]; UCL, read-out: MRSA MIC (UCL)) is reported as > 32 µg/mL, the MIC ([2]; read-out: VRE MIC (UCL)) is reported as > 32 µg/mL and the solubility (Aqueous solubility; [11]) is reported as 723 µM (≈ 163 µg/mL). For the same compound, the chromatographic logD (LogD7.4 (Chrom Log D); [9]) was 2.2, the fraction unbound [3, 10] was 0.21 and the microsomal CLint [4, 12] was > 300 µL/min/mg. The “Rat Hep CLint (NEU)” value ([5]; rat hepatocytes, NEU) was 52.9 uL/min/10x6 cells, the “MRC5 TC50” value [6] was 51.6 µM and the “PMM TC50” value [7] was 64 µM.
For `Cc1ccc(-c2c(-c3ccccn3)nc3cc(Cl)ccn23)cc1` [compound 978], the MIC ([1]; 16 h, read-out: MRSA MIC) was 4 µg/mL (≈ 12.5 µM), the MIC ([1]; read-out: MRSA MIC) was 4 µg/mL (≈ 12.5 µM) and the MIC ([2]; read-out: VRE MIC) was 8 µg/mL (≈ 25 µM). The solubility (Aqueous solubility; read-out: Aqueous Solubility) was 5 µM (≈ 1.6 µg/mL), the chromatographic logD (LogD7.4 (Chrom Log D); pH 7.4, read-out: LogD7.4) was 3.1 and the fraction unbound [3, 13] was 0.01. For the same compound, the microsomal CLint [4, 14] was 65.6 µL/min/mg and the hepatocyte CLint [5, 15] was 104 µL/min/1e6 cells.
Work on `COc1ccc2nc(-c3ccccn3)c(N(C)c3cc(F)cc(F)c3)n2c1` [OSA_000998] yielded an MIC ([1]; UCL, read-out: MRSA MIC (UCL)) of 8 µg/mL (≈ 21.8 µM), an MIC ([8]; read-out: MSSA MIC (UCL)) of 8 µg/mL (≈ 21.8 µM) and an MIC ([2]; read-out: VRE MIC (UCL)) of 32 µg/mL (≈ 87.3 µM). The MIC (VSE) was 16 µg/mL (≈ 43.7 µM), the solubility (Aqueous solubility; [11]) was 8 µM (≈ 2.93 µg/mL) and the chromatographic logD (LogD7.4 (Chrom Log D); [9]) was 4. The fraction unbound [3, 10] was 0.0085, the microsomal CLint [4, 12] was 100 µL/min/mg and the hepatocyte CLint [5, 16] was > 300 µL/min/1e6 cells.
For `CS(=O)(=O)c1ccc2nc(-c3ccccn3)c(Nc3ccc(F)cc3)n2c1` [OSA_001020], the MIC [1, 17] was > 32 µg/mL, the MIC [8, 18] was > 32 µg/mL and the solubility (Aqueous solubility; [19]) was 5 µM (≈ 1.91 µg/mL). For the same compound, the chromatographic logD (LogD7.4 (Chrom Log D); [9]) was 2.4, the fraction unbound [3, 20] was 0.11 and the “HLM CLint (uL/min/mg protein) (NEU)” value ([4]; human liver microsomes, NEU) was 92 uL/min/mg protein. For the same compound, the hepatocyte CLint [5, 21] was > 300 µL/min/1e6 cells, the “MRC5 TC50” value [6] was 64 µM and the “PMM TC50” value [7] was 32 µM.
With `Cc1ccc(-c2c(-c3ccccn3)nc3ccccn23)cc1` [OSA_001018] the MIC ([1]; UCL, read-out: MRSA MIC (UCL)) was 4 µg/mL (≈ 14 µM), the MIC ([8]; read-out: MSSA MIC (UCL)) was 4 µg/mL (≈ 14 µM) and the “Aqueous Solubility (NEU)” value (Aqueous solubility; NEU) was 43 µM. For the same compound, the chromatographic logD (LogD7.4 (Chrom Log D); [9]) was 3.3, the fraction unbound [3, 10] was 0.011 and the “HLM CLint (NEU)” value ([4]; human liver microsomes, NEU) was 122 uL/min/mg protein. For the same compound, the “Rat Hep CLint (NEU)” value ([5]; rat hepatocytes, NEU) was 57.7 uL/min/10x6 cells.
`CN(c1ccc(F)cc1)c1c(-c2ccccn2)nc2cccc(F)n12` [OSA_001005] gave an MIC ([1]; UCL, read-out: MRSA MIC (UCL)) of 32 µg/mL (≈ 95.1 µM), an MIC ([8]; read-out: MSSA MIC (UCL)) of 32 µg/mL (≈ 95.1 µM) and a solubility (Aqueous solubility; [11]) of 64 µM (≈ 21.5 µg/mL). It also gave a chromatographic logD (LogD7.4 (Chrom Log D); [9]) of 1.8, a fraction unbound [3, 10] of 0.035 and a microsomal CLint [4, 12] of 79.3 µL/min/mg. For the same compound, the hepatocyte CLint [5, 16] was > 300 µL/min/1e6 cells.
In the case of `Cc1ccc(-c2c(-c3ccccn3)nc3ccccn23)cc1` [compound 1018], the MIC ([1]; 16 h, read-out: MRSA MIC) is reported as 4 µg/mL (≈ 14 µM), the MIC ([1]; read-out: MRSA MIC) is reported as 4 µg/mL (≈ 14 µM) and the MIC ([8]; read-out: MSSA MIC) is reported as 4 µg/mL (≈ 14 µM). It also gave a solubility (Aqueous solubility; read-out: Aqueous Solubility) of 43 µM (≈ 12.3 µg/mL), a chromatographic logD (LogD7.4 (Chrom Log D); pH 7.4, read-out: LogD7.4) of 3.3 and a fraction unbound [3, 13] of 0.01. For the same compound, the microsomal CLint [4, 14] was 122 µL/min/mg and the hepatocyte CLint [5, 15] was 57.7 µL/min/1e6 cells.
Compound `Fc1ccc(Nc2c(-c3ccccn3)nc3sccn23)cc1` [OSA_000984] has an MIC ([1]; UCL, read-out: MRSA MIC (UCL)) of 8 µg/mL (≈ 25.8 µM), an MIC ([8]; read-out: MSSA MIC (UCL)) of 4 µg/mL (≈ 12.9 µM) and an MIC ([2]; read-out: VRE MIC (UCL)) of 8 µg/mL (≈ 25.8 µM). The solubility (Aqueous solubility; [11]) was 54 µM (≈ 16.8 µg/mL), the chromatographic logD (LogD7.4 (Chrom Log D); [9]) was 0.9 and the fraction unbound [3, 10] was 0.014. The hepatocyte CLint [5, 16] was > 300 µL/min/1e6 cells, the “MRC5 TC50” value [6] was 6.4 µM and the “PMM TC50” value [7] was 32 µM.
For `COc1cccc(-c2nc3ccccn3c2N(CC(C)C)c2ccc(F)cc2)n1` [OSA_001025], the MIC [1, 17] was > 32 µg/mL, the MIC [8, 18] was > 32 µg/mL and the solubility (Aqueous solubility; [19]) was 0.7 µM (≈ 0.273 µg/mL). For the same compound, the chromatographic logD (LogD7.4 (Chrom Log D); [9]) was > 3.7, the fraction unbound [3, 20] was < 0.01 and the microsomal CLint [4, 22] was 86.8 µL/min/mg.
`CC(C)CN(c1ccc(F)cc1)c1c(-c2ccccn2)nc2cc(F)ccn12` [OSA_001023] gave an MIC [1, 17] of 8 µg/mL (≈ 21.1 µM), an MIC [8, 18] of 4 µg/mL (≈ 10.6 µM) and a solubility (Aqueous solubility; [19]) of 11 µM (≈ 4.16 µg/mL). The chromatographic logD (LogD7.4 (Chrom Log D); [9]) was 4.3, the fraction unbound [3, 20] was 0.0023 and the microsomal CLint [4, 22] was 13.6 µL/min/mg. It also gave a hepatocyte CLint [5, 21] of 110 µL/min/1e6 cells.
With `CN(c1ccc(F)cc1)c1c(-c2ccccn2)nc2c(F)cccn12` [OSA_001006] the MIC ([1]; UCL, read-out: MRSA MIC (UCL)) was > 32 µg/mL, the MIC ([8]; read-out: MSSA MIC (UCL)) was > 32 µg/mL and the solubility (Aqueous solubility; [11]) was 26 µM (≈ 8.74 µg/mL). For the same compound, the chromatographic logD (LogD7.4 (Chrom Log D); [9]) was 3.3, the fraction unbound [3, 10] was 0.034 and the microsomal CLint [4, 12] was 127 µL/min/mg. The hepatocyte CLint [5, 16] was 209 µL/min/1e6 cells.
